This is an account of results in PMC9018117 (The Journal of nutritional biochemistry, 2021).

The target of data set [1] is human recombinant COX-1 (Homo sapiens, UniProt P23219). Put plainly: COX-1 activity assay using purified enzyme. Type of data set: biochemical.
In data set [2] the test system is LTB4 formation in differentiated HL-60 cells. Put plainly: LTB4 formation in stimulated neutrophil-like differentiated HL-60 cells. The following applies: for Effect on THAP-stimulated LTB4 (in words): at up to 50 μM, not shown. It counts as cell-based, human.
In data set [3] the target is T1, human recombinant 5-LOX (Homo sapiens, UniProt P09917).
T1 sequence (P09917 1-674): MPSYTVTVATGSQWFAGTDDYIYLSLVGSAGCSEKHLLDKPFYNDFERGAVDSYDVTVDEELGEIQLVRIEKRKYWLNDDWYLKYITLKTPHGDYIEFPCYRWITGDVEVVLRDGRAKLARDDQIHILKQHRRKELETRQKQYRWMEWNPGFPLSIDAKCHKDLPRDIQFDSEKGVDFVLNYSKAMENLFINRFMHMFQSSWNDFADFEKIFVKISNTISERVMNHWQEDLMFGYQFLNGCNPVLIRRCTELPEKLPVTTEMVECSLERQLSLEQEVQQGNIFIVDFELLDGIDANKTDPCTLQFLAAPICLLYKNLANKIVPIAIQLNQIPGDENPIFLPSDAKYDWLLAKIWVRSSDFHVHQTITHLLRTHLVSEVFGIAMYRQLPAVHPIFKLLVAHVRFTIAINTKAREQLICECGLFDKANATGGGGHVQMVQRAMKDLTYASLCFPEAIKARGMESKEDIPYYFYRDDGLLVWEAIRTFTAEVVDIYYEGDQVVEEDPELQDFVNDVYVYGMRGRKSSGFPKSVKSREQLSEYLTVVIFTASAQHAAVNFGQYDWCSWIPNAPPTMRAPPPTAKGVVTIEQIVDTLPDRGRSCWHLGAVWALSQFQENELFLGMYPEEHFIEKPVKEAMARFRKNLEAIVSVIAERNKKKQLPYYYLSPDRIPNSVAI
Put plainly: 5-LOX activity, ferrous oxidation-xylenol orange. It counts as biochemical.

In data set [4] the test system is 5-LOX translocation in differentiated HL-60 cells. Put plainly: 5-LOX translocation from cytosol to nucleus by western blotting. Particulars: 20 μM, 30 min preincubation. Type of data set: cell-based, human. A general note: A western blot detects proteins with antibodies after separation by electrophoresis.
The target of data set [5] is T1, human recombinant 5-LOX. Put plainly: 5-LOX enzyme kinetics. Type of data set: biochemical. The following applies: for Nature of inhibition of 5-LOX: Lineweaver-Burk double reciprocal plot.
Data set [6] concerns COX-2-mediated PGE2 in A549 cells. The experiment in a line: COX-2 activity in intact-cell assay, IL-1β-stimulated A549 cells. Type of data set: cell-based, human. Particulars: read-out: IC50 for inhibition of COX-2-mediated PGE2; IL-1β-stimulated A549 epithelial cells; 5 μM AA.
The subject of data set [7] is 5-LOX. Particulars: read-out: IC50 for inhibition of 5-LOX; ref 10 (Pein et al); cited from earlier work.
Data set [8] deals with LTB4 in cells. Particulars: read-out: IC50 for inhibition of LTB4 in cells; ref 10 (Pein et al); cited from earlier work.
Data set [9] concerns 5-LOX translocation in differentiated HL-60 cells. The following applies: cited from earlier work.
Substrate in data set [10]: CCCCC/C=C\C/C=C\C/C=C\C/C=C\CCCC(=O)O
Put plainly: 5-LOX enzyme kinetics. It counts as biochemical, human. The following applies: other: substrate AA 5–50 μM; oxygen consumption; pH 7.4.

human recombinant COX-1, sequence (P23219 24-599): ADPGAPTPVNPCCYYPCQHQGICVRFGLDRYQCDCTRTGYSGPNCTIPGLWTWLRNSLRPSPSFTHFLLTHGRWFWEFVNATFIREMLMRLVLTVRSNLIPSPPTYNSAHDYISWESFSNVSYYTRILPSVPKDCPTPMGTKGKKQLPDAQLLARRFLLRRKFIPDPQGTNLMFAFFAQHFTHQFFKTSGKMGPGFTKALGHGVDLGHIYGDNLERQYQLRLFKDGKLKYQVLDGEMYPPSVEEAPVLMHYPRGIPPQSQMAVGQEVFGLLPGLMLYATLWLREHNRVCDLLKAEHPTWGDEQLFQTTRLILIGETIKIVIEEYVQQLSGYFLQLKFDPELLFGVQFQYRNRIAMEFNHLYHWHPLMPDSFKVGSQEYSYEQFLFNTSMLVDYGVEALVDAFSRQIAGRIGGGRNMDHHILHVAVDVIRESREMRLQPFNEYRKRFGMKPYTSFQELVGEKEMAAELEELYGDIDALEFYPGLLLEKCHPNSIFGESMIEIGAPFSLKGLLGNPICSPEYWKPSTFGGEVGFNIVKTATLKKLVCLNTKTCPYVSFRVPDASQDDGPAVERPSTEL

As for `Cc1c(O)cc2c(c1C)O[C@](C)(CCC[C@H](C)CCC[C@H](C)CCCC(C)C)CC2` [γT, γ-tocopherol], the IC50 – broadly, the concentration at which inhibition is half-maximal – in data set [1] is 1000 to 2500 nM. In data set [2], the “Effect on THAP-stimulated LTB4 (in words)” value was “no significant effect”.

As to `CC(C)=CCC/C(C)=C/CC/C(C)=C/CC[C@]1(C)CCc2cc(O)cc(C)c2O1` [δTE, δ-tocotrienol], the concentration for half-maximal inhibition (IC50) was 1000 to 2500 nM in [1] and 4300 nM in [3]. Also, the “Effect on A23187-stimulated LTB4 (in words)” value in data set [2] (neutrophil-like HL-60 cells, data not shown) is reported as “inhibited”. The “Impact on THAP-induced 5-LOX translocation (in words)” value (shortened to “Impact”) in data set [4] was “did not show any significant impact”. For the same molecule, the Ki (as a rule, the equilibrium dissociation constant of an inhibitor or competing ligand from its target) in data set [5] was 2200 nM. Further, the “Nature of inhibition of 5-LOX” value in data set [5] is recorded as “competitive inhibitor”.

As for `Cc1c(C)c2c(c(C)c1O)CC[C@@](C)(CCC[C@H](C)CCC[C@H](C)CCCC(C)C)O2` [αT, α-tocopherol], the IC50 in [1] is roughly 12000 nM.

Take `Cc1cc(O)cc2c1OC(C)(CCCC(C)CCCC(C)CCCC(C)C(=O)O)CC2` (centres unmarked) [δT-13’-COOH, δT-13’-carboxychromanol]: the half-maximal inhibitory concentration (IC50) in [6] lay within 2500 to 5000 nM. Besides, the “Impact” value in data set [4] was “did not show any significant impact”. For the same molecule, the “Nature of inhibition of 5-LOX” value in data set [5] was “competitive inhibitor”.

Consider `C/C(=C\CC/C(C)=C/CC[C@]1(C)CCc2cc(O)cc(C)c2O1)CC/C=C(\C)C(=O)O` [δTE-13’-COOH, δTE-13’-carboxychromanol], for which the IC50 in [6] was 2500 to 5000 nM; in data set [7], […]; in data set [8] it was roughly 260 nM. The “Impact” value in data set [4] was “did not show any significant impact”.

On to `Cc1c(O)cc2c(c1C)OC(C)(CCC(=O)O)CC2` (stereo not drawn) [γ-CEHC, 2-(β-carboxyethyl)-6-hydroxychroman], for which, in data set [3], the IC50 is greater than 50000 nM.

For `CC(C)=CCC/C(C)=C/CC/C(C)=C/CC[C@]1(C)CCc2cc(O)c(C)c(C)c2O1` [γTE, γ-tocotrienol], the IC50 in [1] was 1000 to 2500 nM; in [3], 4300 nM. Also, in data set [4], the “Impact” value is reported as “did not show any significant impact”. Besides, the “Effect on A23187-stimulated 5-LOX translocation (in words)” value in [9] is on record as “modestly blocked”.

Take `Cc1cc(O)cc2c1O[C@](C)(CCC[C@H](C)CCC[C@H](C)CCCC(C)C)CC2` [δT, δ-tocopherol]: in data set [2], the “Effect on THAP-stimulated LTB4 (in words)” value is given as “no significant effect”.

B1: human recombinant 5-LOX (Homo sapiens) (protein)
chain: T1 sequence (P09917 1-674)
As to B1, the Km (in general, the concentration of substrate that gives half-maximal velocity) in data set [10] turned out to be 2.1 µM.
